Test results as given in paper PMC5384110 (European journal of medicinal chemistry, 2017).

Experiments:
Type in all cases: biochemical, HIV-1
[1] = molecular target: HIV integrase strand transfer (INST) (Human immunodeficiency virus type 1 group M subtype B, UniProt P04585); experiment: INST assay
[2] = molecular target: RT mutant Y181C (Human immunodeficiency virus type 1 group M subtype B, UniProt P04585, Y768C); experiment: RT pol assay against RT mutant Y181C
[3] = molecular target: RT mutant K103N (Human immunodeficiency virus type 1 group M subtype B, UniProt P04585, K690N); experiment: RT pol assay against RT mutant K103N
[4] = molecular target: HIV RT pol (Human immunodeficiency virus type 1 group M subtype B, UniProt P04585); experiment: RT pol assay; settings: Table 1; mean ± SD, at least two independent experiments
[5] = molecular target: HIV RT RNase H (Human immunodeficiency virus type 1 group M subtype B, UniProt P04585); experiment: RNase H assay; settings: read-out: RT IC50 RNH; Table 2; 3-deoxy precursor 11; tested up to 10 μM

| SMILES | IC50 [1] [µM] | further results |
| --- | --- | --- |
| CC(C)c1c(CC2CCCCC2)n(COCc2ccccc2)c(=O)n(O)c1=O [4a, 1-((Benzyloxy)methyl)-6-(cyclohexylmethyl)-3-hydroxy-5-isopropylpyrimidine-2,4(1H,3H)-dione] | > 100 | IC50 [2]: > 10 µM; IC50 [3]: > 10 µM |
| CC(C)c1c(CC2CCCCC2)n(COCc2ccc(F)cc2)c(=O)n(O)c1=O [4b, 6-(Cyclohexylmethyl)-1-(((4-fluorobenzyl)oxy)methyl)-3-hydroxy-5-isopropylpyrimidine-2,4(1H,3H)-dione] | > 100 | – |
| CCc1c(CC2CCCCC2)n(COCc2ccccc2)c(=O)n(O)c1=O [4c, 1-((Benzyloxy)methyl)-6-(cyclohexylmethyl)-5-ethyl-3-hydroxypyrimidine-2,4(1H,3H)-dione] | > 100 | – |
| CCc1c(CC2CCCCC2)n(COCc2ccc(F)cc2)c(=O)n(O)c1=O [4d, 6-(Cyclohexylmethyl)-5-ethyl-1-(((4-fluorobenzyl)oxy)methyl)-3-hydroxypyrimidine-2,4(1H,3H)-dione] | > 100 | – |
| CCc1c(CC2CCCCC2)n(COCc2cccc(Cl)c2F)c(=O)n(O)c1=O [4e, 1-(((3-Chloro-2-fluorobenzyl)oxy)methyl)-6-(cyclohexylmethyl)-5-ethyl-3-hydroxypyrimidine-2,4(1H,3H)-dione] | > 100 | – |
| CCc1c(CC2CCCCC2)n(COCc2ccc(F)c(F)c2)c(=O)n(O)c1=O [4f, 6-(Cyclohexylmethyl)-1-(((3,4-difluorobenzyl)oxy)methyl)-5-ethyl-3-hydroxypyrimidine-2,4(1H,3H)-dione] | > 100 | RT IC50 Pol [4]: did not inhibit RT pol |
| CCc1c(CC2CCCCC2)n(COCc2ccc(C(F)(F)F)cc2)c(=O)n(O)c1=O [4g, 6-(Cyclohexylmethyl)-5-ethyl-3-hydroxy-1-(((4-(trifluoromethyl)benzyl)oxy)methyl)pyrimidine-2,4(1H,3H)-dione] | > 100 | – |
| CCc1c(CC2CCCCC2)n(COCc2ccc(C)cc2)c(=O)n(O)c1=O [4h, 6-(Cyclohexylmethyl)-5-ethyl-3-hydroxy-1-(((4-methylbenzyl)oxy)methyl) pyrimidine-2,4(1H,3H)-dione] | > 100 | – |
| Cc1c(CC2CCCCC2)n(COCc2ccccc2)c(=O)n(O)c1=O [4i, 1-((Benzyloxy)methyl)-6-(cyclohexylmethyl)-3-hydroxy-5-methylpyrimidine-2,4(1H,3H)-dione] | > 100 | – |
| Cc1c(CC2CCCCC2)n(COCc2cccc(Cl)c2F)c(=O)n(O)c1=O [4j, 1-(((3-Chloro-2-fluorobenzyl)oxy)methyl)-6-(cyclohexylmethyl)-3-hydroxy-5-methylpyrimidine-2,4(1H,3H)-dione] | > 100 | – |
| Cc1c(CC2CCCCC2)n(COCc2ccc(F)c(F)c2)c(=O)n(O)c1=O [4k, 6-(Cyclohexylmethyl)-1-(((3,4-difluorobenzyl)oxy)methyl)-3-hydroxy-5-methyl pyrimidine-2,4(1H,3H)-dione] | > 100 | – |
| Cc1c(CC2CCCCC2)n(COCc2ccc(C(F)(F)F)cc2)c(=O)n(O)c1=O [4l, 6-(Cyclohexylmethyl)-3-hydroxy-5-methyl-1-(((4-(trifluoromethyl)benzyl)oxy)methyl)pyrimidine-2,4(1H,3H)-dione] | > 100 | – |
| Cc1c(CC2CCCCC2)n(COCCc2ccc(F)cc2)c(=O)n(O)c1=O [4m, 6-(Cyclohexylmethyl)-1-((4-fluorophenethoxy)methyl)-3-hydroxy-5-methyl pyrimidine-2,4(1H,3H)-dione] | > 100 | – |
| CC(C)c1c(Cc2ccccc2)n(COCc2ccccc2)c(=O)[nH]c1=O [compound 14, TNK-651] | – | IC50 [5]: > 10 µM |
